Data on two molecules can be found in patent publication US20050220900A1, “Use of extracts containing phytoestrogen selectively modulating estrogen-receptor-beta” (priority 2002, published 2005).

Each structure is given as a SMILES string.

The subject of test [1] is human granulosa/luteal cells. Nature of the test: progesterone secretion of human granulosa/luteal cells. The class given is cell-based. As to conditions: 5-hour incubation, 1 μM. From the text: Luteal cell cultures are an established test method for the paracrine effect of steroids. Such cells are not available from humans, since all surgical procedures in which biopsies can be taken are always performed at the follicular phase to avoid the risk of an undetected pregnancy. However, these granulosa/luteal cells become available in the course of in vitro fertilization programs and are maintained in culture, and they behave very much like luteal cells in terms of receptor population and secretory function. An estrogenic effect of vitex agnus castus was tested with this human in vitro testing system. […] FIG. 5: […] The * indicates a significant deviation from the (culture) medium control. FIG. 6 summarizes the effect of vitex agnus castus extracts upon progesterone secretion under this testing system after a 5-hour incubation.

The next test deals with porcine luteal cells. Nature of the test: progesterone secretion of porcine luteal cells. It is filed as cell-based. As to conditions: anti-estrogen alone.

Procedure for porcine luteal cells: To reinforce this conclusion, the cells were incubated with vitex agnus castus extract along with the anti-estrogen tamoxifen.

On to `C[C@]12CC[C@@H]3c4ccc(O)cc4CC[C@H]3[C@@H]1CC[C@H]2O` [17-alpha estradiol, estradiol 17-alpha], for which the “effect on progesterone secretion” value in test [1] is listed as “no effect”.

Consider `CC/C(=C(\c1ccccc1)c1ccc(OCCN(C)C)cc1)c1ccccc1` [tamoxifen], for which the “effect on progesterone excretion, tamoxifen alone” value in the test with porcine luteal cells is recorded as “without effect”.
